# Calls of active or inactive are those of the source. The rule behind the calls is not given here.
# Test system: GENE-TOX genotoxicity assays, various organisms and cells
# Experiment: GENE-TOX mutagenicity studies
# Conditions: for call: Assay Type: In vivo carcinogenicity studies, Assay Code: CCG+
# [1] = Species/Cell Type: Human diploid fibroblasts, Assay Type: Unscheduled DNA synthesis (UDS) in vitro, DNA effects, Assay Code: UDH-, Evaluation Type: Evaluation A (Pre-1980)
# [2] = Species/Cell Type: Bacillus subtilis (H17 vs M45), Assay Type: Rec-assay, spot test, DNA effects (bacterial DNA repair), Assay Code: REW-, Evaluation Type: Evaluation A (Pre-1980)
# [3] = Species/Cell Type: Salmonella typhimurium (one or more of the five standard strains: TA98, TA100, TA1535, TA1537, and TA1538), Assay Type: Histidine reverse gene mutation, Ames assay, Assay Code: SALT, Evaluation Type: Evaluation A (Pre-1980)
# [4] = Species/Cell Type: Saccharomyces cerevisiae, Assay Type: Mitotic recombination or gene conversion, Assay Code: YEH-, Evaluation Type: Evaluation A (Pre-1980)
# [5] = Species/Cell Type: Saccharomyces cerevisiae, Assay Type: Reverse gene mutation, Assay Code: YER-, Evaluation Type: Evaluation A (Pre-1980)
# [6] = Species/Cell Type: Salmonella typhimurium (one or more of the five standard strains: TA98, TA100, TA1535, TA1537, and TA1538), Assay Type: Histidine reverse gene mutation, Ames assay, Assay Code: SAL+, Evaluation Type: Evaluation A (Pre-1980)
# [7] = Species/Cell Type: Escherichia coli polA (W3119 vs P3478), Assay Type: Rec-assay, DNA effects (bacterial DNA repair), Assay Code: RE1-, Evaluation Type: Evaluation A (Pre-1980)
# [8] = Species/Cell Type: Drosophila melanogaster, Assay Type: Sex-linked recessive lethal gene mutation, Assay Code: SRL+, Evaluation Type: Evaluation A (Pre-1980)
# [9] = Species/Cell Type: Nonhuman, Evaluation Type: Evaluation A (Pre-1980)
# [10] = Species/Cell Type: Salmonella typhimurium (one or more of the five standard strains: TA98, TA100, TA1535, TA1537, and TA1538), Assay Type: Histidine reverse gene mutation, Ames assay, Assay Code: SAL+*, Activation: With metabolic activation, Evaluation Type: Evaluation A (Pre-1980)
# [11] = Species/Cell Type: Mammalian polychromatic erythrocytes, Assay Type: Micronucleus test, chromosome aberrations, Assay Code: MNTT, Evaluation Type: Evaluation B (Post-1980)
structure (smiles),measurement,setting,value
c1cc2cccc3c4cccc5cccc(c(c1)c23)c54,mutagenic call,"Species/Cell Type: Chinese hamster lung (V79) cells, Assay Type: Forward gene mutation, host-mediated assay, Assay Code: HMG-, Evaluation Type: Evaluation A (Pre-1980)",inactive; negative
same,mutagenic call,"Species/Cell Type: Nonhuman, Assay Type: Sister-chromatid exchange (SCE) in vivo, Assay Code: SC3-, Evaluation Type: Evaluation A (Pre-1980)",inactive; negative
O=C1CN=C(c2ccccc2Cl)c2cc([N+](=O)[O-])ccc2N1,mutagenic call,"Species/Cell Type: Salmonella typhimurium, Assay Type: Forward and reverse gene mutation, body fluid assay, Assay Code: BFU-, Evaluation Type: Evaluation A (Pre-1980)",inactive; negative
same,mutagenic call,"Species/Cell Type: Salmonella typhimurium, Assay Type: Forward and reverse gene mutation, host-mediated assay, Assay Code: HMA-, Evaluation Type: Evaluation A (Pre-1980)",inactive; negative
COc1cc(/C=N/NC(=O)COc2ccc(Br)cc2CN2CCCCC2)ccc1O,mutagenic call,"Species/Cell Type: Saccharomyces cerevisiae, Assay Type: Reverse gene mutation, Assay Code: YERT, Evaluation Type: Evaluation A (Pre-1980)",no conclusion
O=[N+]([O-])c1ccc2c(ccc[n+]2[O-])c1,mutagenic call,[1],inactive; negative
COP(=S)(OC)Oc1cc(Cl)c(Cl)cc1Cl,mutagenic call,"Species/Cell Type: Human, Assay Type: Sister-chromatid exchange (SCE) in vitro, Assay Code: SC1+D, Dose Response: With dose response, Evaluation Type: Evaluation B (Post-1980)",active; positive
O=C(NOS(=O)(=O)O)c1ccc2ccccc2c1,mutagenic call,"Species/Cell Type: Nonhuman, Assay Type: Sister-chromatid exchange (SCE) in vitro, Assay Code: SC2+D, Dose Response: With dose response, Evaluation Type: Evaluation B (Post-1980)",active; positive
[Cl][Bi]([Cl])[Cl],mutagenic call,[2],inactive; negative
Nc1ccc(-c2nc(NCC(O)CO)c3ccccc3n2)s1 (stereo not drawn),mutagenic call,[3],no conclusion
Cc1cc(N(C)CCCl)ccc1N=Nc1ccccc1C(=O)O,mutagenic call,"Species/Cell Type: Drosophila melanogaster, Assay Type: Sex-linked recessive lethal gene mutation, Assay Code: SRLT, Evaluation Type: Evaluation A (Pre-1980)",no conclusion
CC[n+]1c(-c2ccccc2)c2cc(N)ccc2c2ccc(N)cc21,mutagenic call,"Species/Cell Type: Chinese hamster ovary (CHO) cells, Assay Type: Forward gene mutation at the HPRT locus, Assay Code: CHO+, Evaluation Type: Evaluation B (Post-1980)",active; positive
same,mutagenic call,"Species/Cell Type: Escherichia coli polA (W3119 vs P3478), Assay Type: Rec-assay, DNA effects (bacterial DNA repair), Assay Code: RE1+, Evaluation Type: Evaluation A (Pre-1980)",active; positive
same,mutagenic call,"Species/Cell Type: Mammalian cell culture, nonhuman, Assay Type: Micronucleus test in vitro, chromosome aberrations, Assay Code: MN&+, Evaluation Type: Evaluation A (Pre-1980)",active; positive
same,mutagenic call,"Species/Cell Type: Mammalian germ cells, Sex: Male, Assay Type: Chromosome aberrations in vivo, Assay Code: CY9T, Evaluation Type: Evaluation A (Pre-1980)",no conclusion
same,mutagenic call,"Species/Cell Type: Mouse, Sex: Male, Assay Type: Sperm morphology, Assay Code: SPI-, Evaluation Type: Evaluation A (Pre-1980)",inactive; negative
same,mutagenic call,"Species/Cell Type: Saccharomyces cerevisiae, Assay Type: Mitotic recombination or gene conversion, Assay Code: YEC-, Evaluation Type: Evaluation A (Pre-1980)",inactive; negative
same,mutagenic call,[4],inactive; negative
same,mutagenic call,[5],inactive; negative
same,mutagenic call,[6],active; positive
same,mutagenic call,"Species/Cell Type: Syrian hamster embryo (SA7/SHE) cells, Assay Type: Cell transformation, viral enhanced, Assay Code: CT7-, Evaluation Type: Evaluation A (Pre-1980)",inactive; negative
CN(N=O)C(=O)c1ccc(C(=O)N(C)N=O)cc1,mutagenic call,"Species/Cell Type: Arabidopsis species, Assay Type: Gene mutation, Assay Code: ARM-, Evaluation Type: Evaluation A (Pre-1980)",inactive; negative
same,mutagenic call,"Species/Cell Type: Saccharomyces cerevisiae, Assay Type: Mitotic recombination or gene conversion, Assay Code: YEH+, Evaluation Type: Evaluation A (Pre-1980)",active; positive
same,mutagenic call,[5],inactive; negative
CC(=O)OCC1=C(C(=O)O)N2C(=O)[C@@H](NC(=O)Cc3cccs3)[C@H]2SC1,mutagenic call,[7],inactive; negative
CON(C)C(=O)Nc1ccc(Br)cc1,mutagenic call,"Species/Cell Type: Hordeum vulgare (barley), Assay Type: Chromosome aberrations, Assay Code: HOC-, Evaluation Type: Evaluation A (Pre-1980)",inactive; negative
Cc1c2occc2cc2c1oc(=O)c1cnccc12,mutagenic call,"Species/Cell Type: Human, Assay Type: Sister-chromatid exchange (SCE) in vitro, Assay Code: SC1+, Evaluation Type: Evaluation B (Post-1980)",active; positive
O=C1CCc2c1c(=O)oc1c3c(cc(O)c21)O[C@H]1OC=C[C@@H]31,mutagenic call,[3],no conclusion
O=C1NC(=O)C(=O)C(=O)N1,mutagenic call,"Species/Cell Type: Neurospora crassa, Assay Type: Aneuploidy, chromosome aberrations, Assay Code: NEN-, Evaluation Type: Evaluation A (Pre-1980)",inactive; negative
c1ccc2c(c1)ccc1cc3c(ccc4ccccc43)cc12,mutagenic call,"Species/Cell Type: Chinese hamster lung (V79) cells, Assay Type: Forward gene mutation at the HPRT or ouabain locus, Assay Code: V79+*, Activation: With metabolic activation, Evaluation Type: Evaluation A (Pre-1980)",active; positive
same,mutagenic call,[8],active; positive
same,mutagenic call,"Species/Cell Type: Fischer rat embryo (RLV/1706) cells, Assay Type: Cell transformation, viral enhanced, Assay Code: CTR+, Evaluation Type: Evaluation A (Pre-1980)",active; positive
same,mutagenic call,"Species/Cell Type: Fischer rat embryo (SA7/RE) cells, Assay Type: Cell transformation, viral enhanced, Assay Code: CTA+, Evaluation Type: Evaluation A (Pre-1980)",active; positive
same,mutagenic call,"Species/Cell Type: Human diploid fibroblasts, Assay Type: Unscheduled DNA synthesis (UDS) in vitro, DNA effects, Assay Code: UDHT, Evaluation Type: Evaluation A (Pre-1980)",no conclusion
same,mutagenic call,"Species/Cell Type: Mouse (BALB/c-3T3) cells, Assay Type: Cell transformation, Assay Code: CTB+, Evaluation Type: Evaluation A (Pre-1980)",active; positive
same,mutagenic call,"Species/Cell Type: Mouse (C3H/10T1/2) cells, Assay Type: Cell transformation, Assay Code: CTH+, Evaluation Type: Evaluation A (Pre-1980)",active; positive
same,mutagenic call,"Species/Cell Type: Mouse embryo (AKR/ME) cells, Assay Type: Cell transformation, Assay Code: CTK+, Evaluation Type: Evaluation A (Pre-1980)",active; positive
same,mutagenic call,"Species/Cell Type: Mouse prostate cells, Assay Type: Cell transformation, Assay Code: CTMT, Evaluation Type: Evaluation A (Pre-1980)",no conclusion
same,mutagenic call,"Species/Cell Type: Neurospora crassa, Assay Type: Forward gene mutation, Assay Code: NEF+, Evaluation Type: Evaluation A (Pre-1980)",active; positive
same,call,[9],active; positive
same,mutagenic call,"Species/Cell Type: Nonhuman, Assay Type: Sister-chromatid exchange (SCE) in vivo, Assay Code: SC3T, Evaluation Type: Evaluation A (Pre-1980)",no conclusion
same,mutagenic call,[10],active; positive
same,mutagenic call,"Species/Cell Type: Syrian hamster embryo (SA7/SHE) cells, Assay Type: Cell transformation, viral enhanced, Assay Code: CT7+, Evaluation Type: Evaluation A (Pre-1980)",active; positive
same,mutagenic call,"Species/Cell Type: Syrian hamster embryo (SHE) cells, Assay Type: Cell transformation, clonal assay, Assay Code: CTC+D, Dose Response: With dose response, Evaluation Type: Evaluation A (Pre-1980)",active; positive
same,mutagenic call,"Species/Cell Type: Syrian hamster embryo (SHE) cells, Assay Type: Cell transformation, focus assay, Assay Code: CTF+, Evaluation Type: Evaluation A (Pre-1980)",active; positive
CCCCC(CC)COC(=O)c1ccccc1C(=O)OCC(CC)CCCC (stereo not drawn),call,[9],active; positive
same,mutagenic call,"Species/Cell Type: Nonhuman, Assay Type: Sister-chromatid exchange (SCE) in vitro, Assay Code: SC2T, Evaluation Type: Evaluation A (Pre-1980)",no conclusion
same,mutagenic call,"Species/Cell Type: Rodents, Sex: Male, Assay Type: Dominant lethal test, Assay Code: DLT+, Evaluation Type: Evaluation A (Pre-1980)",active; positive
CCCCCCCCCCCCCCCCCCN(CCO)CCCN(CCO)CCO,mutagenic call,[11],no conclusion
ONc1ccc(-c2ccccc2)cc1,mutagenic call,[6],active; positive
c1ccc2cc3c4c(ccc3cc2c1)CCC1OC41 (stereo not drawn),mutagenic call,"Species/Cell Type: Chinese hamster lung (V79) cells, Assay Type: Forward gene mutation at the HPRT or ouabain locus, Assay Code: V79+, Evaluation Type: Evaluation A (Pre-1980)",active; positive
Cc1cc(N=Nc2ccc(C)c(N=Nc3cc(C)c(N)cc3N)c2)c(N)cc1N,mutagenic call,[2],inactive; negative
CCCCCc1cc(O)c2c(c1)OC(C)(C)[C@@H]1CCC(CO)=C[C@@H]21,mutagenic call,[1],inactive; negative
O=[Si]=O,mutagenic call,"Species/Cell Type: Nonhuman, Assay Type: Sister-chromatid exchange (SCE) in vitro, Assay Code: SC2T, Evaluation Type: Evaluation B (Post-1980)",no conclusion
CC(=O)OC[C@]12CCC(C)=C[C@H]1O[C@@H]1[C@H](O)[C@@H](OC(C)=O)[C@@]2(C)[C@]12CO2,mutagenic call,[4],inactive; negative
same,mutagenic call,[3],no conclusion
O=C(O)c1ccccc1N=Nc1ccc(N(CCCl)CCCl)cc1,mutagenic call,[8],active; positive
Cc1cc(C)c(C)c(OC(=O)N(C)N=O)c1,mutagenic call,[6],active; positive
c1ncc2[nH]cnc2n1,mutagenic call,[7],inactive; negative
O=[N+]([O-])c1ccc(N=Nc2ccccc2)cc1,mutagenic call,[6],active; positive
COc1cc(O)c2c(O)c3c(c4c2c1[C@]1(C4)C(C)=CCCC1(C)C)[C@H](O)[C@@]1(O)CC(=O)C(C(N)=O)=C(O)[C@@]1(O)C3=O,mutagenic call,[10],active; positive
Clc1ccc2ccccc2n1,mutagenic call,[3],no conclusion
Nc1cc(Cl)c(Cl)cc1N,mutagenic call,[11],no conclusion

# Source: PubChem BioAssay AID1259408 (Genetic Toxicology Data Bank (GENE-TOX), 2018)
